Results as given in ChEMBL document CHEMBL1201862, “PubChem BioAssay data set” (2004).
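How tested: cells in 96-well plates exposed to compound for 48 hours at five concentrations. GI50 is the concentration that inhibits growth by half.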 Active and inactive are the calls of the source. No stated cut-off is given here; in the data, active = GI50 up to about 1.1 µM and inactive = higher.

How the values were obtained:
Experiment in all cases: NCI anticancer screen, dose series, 48 h
[1] = system: 786-0
[2] = system: A498
[3] = system: A549
[4] = system: ACHN
[5] = system: CAKI-1
[6] = system: CCRF-CEM
[7] = system: COLO 205
[8] = system: DLD-1
[9] = system: DMS-273
[10] = system: EKVX
[11] = system: HCC 2998
[12] = system: HCT-116
[13] = system: HCT-15
[14] = system: HL-60
[15] = system: HOP-18
[16] = system: HOP-62
[17] = system: HOP-92
[18] = system: HT-29
[19] = system: IGROV-1
[20] = system: K562
[21] = system: KM-20L2
[22] = system: KM12
[23] = system: LOX IMVI
[24] = system: LXFL 529
[25] = system: M14
[26] = system: M19-MEL
[27] = system: MOLT-4
[28] = system: Malme-3M
[29] = system: NCI-H226
[30] = system: NCI-H23
[31] = system: NCI-H460
[32] = system: NCI-H522
[33] = system: OVCAR-3
[34] = system: OVCAR-4
[35] = system: OVCAR-5
[36] = system: OVCAR-8
[37] = system: RXF 393
[38] = system: RXF 631
[39] = system: SF-268
[40] = system: SF-295
[41] = system: SF-539
[42] = system: SK-MEL-28
[43] = system: SK-MEL-2
[44] = system: SK-MEL-5
[45] = system: SK-OV-3
[46] = system: SN12C
[47] = system: SNB-19
[48] = system: SNB-75
[49] = system: SNB-78
[50] = system: SR
[51] = system: TK-10
[52] = system: U-251
[53] = system: UACC-257
[54] = system: UACC-62
[55] = system: UO-31
[56] = system: XF498
[57] = system: DMS-114
[58] = system: RPMI-8226
[59] = system: SW-620

## O=C1C2=C(CC3C(C2)C3(Br)Br)C(=O)C2=C1CC1C(C2)C1(Br)Br (stereo not given)
[1]
  GI50: > 100 µM (inactive)
[2]
  GI50: > 100 µM (inactive)
[3]
  GI50: > 100 µM (inactive)
[4]
  GI50: > 100 µM (inactive)
[5]
  GI50: > 100 µM (inactive)
[6]
  GI50: 61.9 µM (inactive)
[7]
  GI50: > 100 µM (inactive)
[8]
  GI50: > 100 µM (inactive)
[9]
  GI50: > 100 µM (inactive)
[10]
  GI50: > 100 µM (inactive)
[11]
  GI50: > 100 µM (inactive)
[12]
  GI50: > 100 µM (inactive)
[13]
  GI50: > 100 µM
[14]
  GI50: > 100 µM (inactive)
[15]
  GI50: > 100 µM (inactive)
[16]
  GI50: > 100 µM (inactive)
[17]
  GI50: > 100 µM (inactive)
[18]
  GI50: > 100 µM (inactive)
[19]
  GI50: > 100 µM (inactive)
[20]
  GI50: > 100 µM (inactive)
[21]
  GI50: > 100 µM (inactive)
[22]
  GI50: > 100 µM (inactive)
[23]
  GI50: 82.4 µM (inactive)
[24]
  GI50: > 100 µM (inactive)
[25]
  GI50: > 100 µM (inactive)
[26]
  GI50: 52.8 µM (inactive)
[27]
  GI50: > 100 µM (inactive)
[28]
  GI50: > 100 µM (inactive)
[29]
  GI50: > 100 µM (inactive)
[30]
  GI50: > 100 µM (inactive)
[31]
  GI50: > 100 µM (inactive)
[32]
  GI50: 34.6 µM (inactive)
[33]
  GI50: > 100 µM (inactive)
[34]
  GI50: > 100 µM (inactive)
[35]
  GI50: > 100 µM (inactive)
[36]
  GI50: > 100 µM (inactive)
[37]
  GI50: > 100 µM (inactive)
[38]
  GI50: > 100 µM (inactive)
[39]
  GI50: > 100 µM (inactive)
[40]
  GI50: > 100 µM (inactive)
[41]
  GI50: > 100 µM (inactive)
[42]
  GI50: > 100 µM (inactive)
[43]
  GI50: > 100 µM (inactive)
[44]
  GI50: > 100 µM (inactive)
[45]
  GI50: > 100 µM (inactive)
[46]
  GI50: > 100 µM (inactive)
[47]
  GI50: > 100 µM (inactive)
[48]
  GI50: > 100 µM (inactive)
[49]
  GI50: > 100 µM (inactive)
[50]
  GI50: > 100 µM (inactive)
[51]
  GI50: > 100 µM (inactive)
[52]
  GI50: > 100 µM (inactive)
[53]
  GI50: > 100 µM (inactive)
[54]
  GI50: > 100 µM (inactive)
[55]
  GI50: > 100 µM (inactive)
[56]
  GI50: > 100 µM (inactive)

## CC(C)c1cccc(=O)c(O)c1 [HINOKITIOL]
[1]
  GI50: 5.22 µM (inactive)
[2]
  GI50: 44.1 µM (inactive)
[3]
  GI50: 9.35 µM (inactive)
[4]
  GI50: 3.33 µM (inactive)
[5]
  GI50: 16.1 µM (inactive)
[6]
  GI50: 2.79 µM (inactive)
[7]
  GI50: 4.24 µM (inactive)
[8]
  GI50: 5.31 µM (inactive)
[57]
  GI50: 3.72 µM (inactive)
[9]
  GI50: 3.83 µM (inactive)
[10]
  GI50: 17.3 µM (inactive)
[11]
  GI50: 9.23 µM (inactive)
[12]
  GI50: 3.91 µM (inactive)
[13]
  GI50: 5.14 µM
[14]
  GI50: 2.49 µM (inactive)
[15]
  GI50: 15.3 µM (inactive)
[16]
  GI50: 10.9 µM (inactive)
[17]
  GI50: 15.9 µM (inactive)
[18]
  GI50: 4.27 µM (inactive)
[19]
  GI50: 13.5 µM (inactive)
[20]
  GI50: 6.38 µM (inactive)
[21]
  GI50: 4.27 µM (inactive)
[22]
  GI50: 12.4 µM (inactive)
[23]
  GI50: 5.06 µM (inactive)
[24]
  GI50: 6.85 µM (inactive)
[25]
  GI50: 8.49 µM (inactive)
[26]
  GI50: 13.3 µM (inactive)
[27]
  GI50: 3.18 µM (inactive)
[28]
  GI50: 12.6 µM (inactive)
[29]
  GI50: 11 µM (inactive)
[30]
  GI50: 8.09 µM (inactive)
[31]
  GI50: 6.98 µM (inactive)
[32]
  GI50: 3.82 µM (inactive)
[33]
  GI50: 4.05 µM (inactive)
[34]
  GI50: 7.23 µM (inactive)
[35]
  GI50: 15.7 µM (inactive)
[36]
  GI50: 4.45 µM (inactive)
[58]
  GI50: 7.93 µM (inactive)
[37]
  GI50: 25.4 µM (inactive)
[38]
  GI50: 30.5 µM (inactive)
[39]
  GI50: 6.37 µM (inactive)
[40]
  GI50: 6.52 µM (inactive)
[41]
  GI50: 5.31 µM (inactive)
[42]
  GI50: 18.9 µM (inactive)
[43]
  GI50: 12.1 µM (inactive)
[44]
  GI50: 24.5 µM (inactive)
[45]
  GI50: 49.4 µM (inactive)
[46]
  GI50: 11.2 µM (inactive)
[47]
  GI50: 10.9 µM (inactive)
[48]
  GI50: 24.4 µM (inactive)
[49]
  GI50: 48.3 µM (inactive)
[50]
  GI50: 2.84 µM (inactive)
[59]
  GI50: 5.9 µM (inactive)
[51]
  GI50: 58.1 µM (inactive)
[52]
  GI50: 9.12 µM (inactive)
[53]
  GI50: 4.1 µM (inactive)
[54]
  GI50: 5.79 µM (inactive)
[55]
  GI50: 10.5 µM (inactive)
[56]
  GI50: 4.24 µM (inactive)
